In US20240382629A1, “HETEROBIVALENT AND HOMOBIVALENT AGENTS TARGETING FIBROBLAST ACTIVATION PROTEIN ALPHA AND/OR PROSTATE-SPECIFIC MEMBRANE ANTIGEN” (The Johns Hopkins University, priority 2021, published 2024):
Where “and” joins values, the source holds several entries; their conditions need not be identical. Equal entries are not always repeated.

Tested on: U87 tumor
Test: Biodistribution ([^18F]JHU1221823), carrier / specific activity study
Format: in vivo, mouse
Conditions: individual mouse
Source text: Biodistribution of Representative Compounds

[1] = + 0.05 nmole carrier, 60 min post injection
[2] = + 0.1 nmole carrier, 60 min post injection
[3] = + 0.25 nmole carrier, 60 min post injection
[4] = NOD/SCID, U87 tumor, Carrier 350 (350 mCi/μmol), 60 min post injection
[5] = NOD/SCID, U87 tumor, Carrier 700, 60 min post injection

## N#C[C@@H]1CCCN1C(=O)CNC(=O)c1ccnc2ccc(OCCCNC(=O)CCOCCOCCOCCOCCNC(=O)[C@H](CCCCNC(=O)c3ccc([18F])nc3)NC(=O)CN3CCN(CC(=O)O)CCN(CC(=O)O)CCN(CC(=O)O)CC3)cc12 [[^18F]JHU1221823]
+ 0.01 nmole carrier
  Bladder % ID/g: 1.82 % ID/g and 2.18 % ID/g
  Blood % ID/g: 11.19 % ID/g and 11.39 % ID/g
  Brain % ID/g: 0.32 % ID/g and 0.28 % ID/g
  Fat % ID/g: 0.23 % ID/g and 0.44 % ID/g
  Femur % ID/g: 3.05 % ID/g and 4.01 % ID/g
  Heart % ID/g: 4.74 % ID/g and 4.50 % ID/g
  Kidney % ID/g: 2.82 % ID/g and 3.11 % ID/g
  Large intestine % ID/g: 1.60 % ID/g and 1.63 % ID/g
  Liver % ID/g: 2.78 % ID/g and 3.40 % ID/g
  Lung % ID/g: 6.08 % ID/g and 6.21 % ID/g
  Muscle % ID/g: 2.03 % ID/g and 1.73 % ID/g
  Pancreas % ID/g: 4.01 % ID/g and 4.14 % ID/g
  Salivary gland % ID/g: 7.47 % ID/g and 7.48 % ID/g
  Small intestine % ID/g: 2.22 % ID/g and 2.17 % ID/g
  Spleen % ID/g: 1.88 % ID/g and 2.13 % ID/g
  Stomach % ID/g: 1.33 % ID/g and 1.65 % ID/g
  Tumor % ID/g: 1.88 % ID/g and 2.86 % ID/g
[1]
  Bladder % ID/g: 6.14 % ID/g and 2.43 % ID/g
  Blood % ID/g: 7.42 % ID/g and 7.67 % ID/g
  Brain % ID/g: 0.20 % ID/g and 0.21 % ID/g
  Fat % ID/g: 0.94 % ID/g and 0.61 % ID/g
  Femur % ID/g: 2.83 % ID/g and 3.67 % ID/g
  Heart % ID/g: 3.03 % ID/g and 3.04 % ID/g
  Kidney % ID/g: 2.02 % ID/g and 2.55 % ID/g
  Large intestine % ID/g: 1.48 % ID/g and 1.58 % ID/g
  Liver % ID/g: 1.92 % ID/g and 2.34 % ID/g
  Lung % ID/g: 4.05 % ID/g and 4.16 % ID/g
  Muscle % ID/g: 1.47 % ID/g and 2.20 % ID/g
  Pancreas % ID/g: 4.01 % ID/g and 6.69 % ID/g
  Salivary gland % ID/g: 10.22 % ID/g and 11.63 % ID/g
  Small intestine % ID/g: 1.46 % ID/g and 2.18 % ID/g
  Spleen % ID/g: 1.37 % ID/g and 1.62 % ID/g
  Stomach % ID/g: 1.07 % ID/g and 1.48 % ID/g
  Tumor % ID/g: 2.59 % ID/g and 4.26 % ID/g
[2]
  Bladder % ID/g: 1.62 % ID/g and 1.87 % ID/g
  Blood % ID/g: 3.88 % ID/g and 4.32 % ID/g
  Brain % ID/g: 0.08 % ID/g and 0.17 % ID/g
  Fat % ID/g: 2.17 % ID/g and 1.13 % ID/g
  Femur % ID/g: 3.44 % ID/g and 4.00 % ID/g
  Heart % ID/g: 1.80 % ID/g and 1.87 % ID/g
  Kidney % ID/g: 2.03 % ID/g and 2.00 % ID/g
  Large intestine % ID/g: 2.91 % ID/g and 1.79 % ID/g
  Liver % ID/g: 1.01 % ID/g and 1.30 % ID/g
  Lung % ID/g: 2.31 % ID/g and 2.83 % ID/g
  Muscle % ID/g: 1.69 % ID/g and 2.25 % ID/g
  Pancreas % ID/g: 4.18 % ID/g and 5.17 % ID/g
  Salivary gland % ID/g: 7.28 % ID/g and 9.35 % ID/g
  Small intestine % ID/g: 1.66 % ID/g and 1.63 % ID/g
  Spleen % ID/g: 0.91 % ID/g and 1.01 % ID/g
  Stomach % ID/g: 0.89 % ID/g and 1.12 % ID/g
  Tumor % ID/g: 5.48 % ID/g and 4.73 % ID/g
[3]
  Bladder % ID/g: 3.04 % ID/g and 1.98 % ID/g
  Blood % ID/g: 1.76 % ID/g and 2.03 % ID/g
  Brain % ID/g: 0.08 % ID/g
  Fat % ID/g: 0.65 % ID/g and 0.37 % ID/g
  Femur % ID/g: 3.97 % ID/g and 4.56 % ID/g
  Heart % ID/g: 0.91 % ID/g
  Kidney % ID/g: 1.70 % ID/g and 2.15 % ID/g
  Large intestine % ID/g: 0.62 % ID/g and 0.68 % ID/g
  Liver % ID/g: 0.73 % ID/g and 0.77 % ID/g
  Lung % ID/g: 1.17 % ID/g and 1.57 % ID/g
  Muscle % ID/g: 1.32 % ID/g and 1.19 % ID/g
  Pancreas % ID/g: 2.11 % ID/g and 1.42 % ID/g
  Salivary gland % ID/g: 3.78 % ID/g and 2.85 % ID/g
  Small intestine % ID/g: 0.75 % ID/g and 1.07 % ID/g
  Spleen % ID/g: 0.44 % ID/g and 0.48 % ID/g
  Stomach % ID/g: 0.61 % ID/g and 0.77 % ID/g
  Tumor % ID/g: 3.93 % ID/g and 3.11 % ID/g
[4]
  Bladder % ID/g: 2.09 % ID/g and 6.57 % ID/g
  Blood % ID/g: 3.99 % ID/g and 4.29 % ID/g
  Brain % ID/g: 0.10 % ID/g and 0.09 % ID/g
  Fat % ID/g: 0.89 % ID/g and 0.82 % ID/g
  Femur % ID/g: 3.67 % ID/g and 3.18 % ID/g
  Heart % ID/g: 2.25 % ID/g and 2.02 % ID/g
  Kidney % ID/g: 2.00 % ID/g and 2.27 % ID/g
  Large intestine % ID/g: 2.18 % ID/g and 1.97 % ID/g
  Liver % ID/g: 1.71 % ID/g and 1.81 % ID/g
  Lung % ID/g: 2.51 % ID/g and 2.98 % ID/g
  Muscle % ID/g: 2.02 % ID/g and 2.04 % ID/g
  Pancreas % ID/g: 10.66 % ID/g and 9.69 % ID/g
  Salivary gland % ID/g: 9.63 % ID/g and 9.35 % ID/g
  Small intestine % ID/g: 2.86 % ID/g and 1.91 % ID/g
  Spleen % ID/g: 1.60 % ID/g and 1.01 % ID/g
  Stomach % ID/g: 1.47 % ID/g
  Tumor % ID/g: 8.22 % ID/g and 9.06 % ID/g
[5]
  Bladder % ID/g: 8.20 % ID/g
  Blood % ID/g: 5.82 % ID/g
  Brain % ID/g: 0.16 % ID/g
  Fat % ID/g: 0.90 % ID/g
  Femur % ID/g: 2.41 % ID/g
  Heart % ID/g: 3.48 % ID/g
  Kidney % ID/g: 2.45 % ID/g
  Large intestine % ID/g: 2.26 % ID/g
